Source: article PMC5285354, “Cationic Net Charge and Counter Ion Type as Antimicrobial Activity Determinant Factors of Short Lipopeptides” (Frontiers in Microbiology, 2017)
Converted amounts (≈) assume the structure as drawn. Like-named read-outs stand apart in the source and are kept apart here. Where a SMILES comes first, the peptide text is derived from it. The star is where a group is joined. Decanoyl = CCCCCCCCCC(=O)*; Octanoyl = CCCCCCCC(=O)*

Assays:
Format in all cases: cell-based
[1] = system: Enterococcus faecalis (ATCC 29212); conditions: for MBC Enterococcus fecalis: subculture on Mueller-Hinton II Agar, 24 h 37°C
Procedure: (§1) The minimum inhibitory concentration (MIC), minimum bactericidal concentration (MBC) and minimum fungicidal concentration (MFC) were determined according to the procedure recommended by the Clinical Laboratory Standards Institute (CLSI). The following reference strains were tested: Gram-negative E. coli (ATCC 25922), K. pneumoniae (ATCC 700603), P. vulgaris (PCM 2668), P. aeruginosa (ATCC 9027), Gram-positive S. aureus (ATCC 25923), S. epidermidis (PCM 2118), B. subtilis (ATCC 6633), E. faecalis (ATCC 29212) and fungi C. albicans (ATCC 10231), C. tropicalis (PCM 2681), and A. brasiliensis (ATCC 16404). All the microorganisms were from the Polish Collection of Microorganisms (Wroclaw, Poland). MIC was determined using a microbroth dilution method with Mueller-Hinton (MH) broth for bacteria and Sabouraud Dextrose broth for fungi (Becton Dickinson, Le Pont de Claix, France). An initial inoculum of 10^5 cfu/mL was used for bacteria and 10^3 cfu/mL for fungi. Polypropylene 96-well plates (Kartell, Noviglio, Italy) were incubated for 18 h at 37°C for bacteria and for 48 h at 25°C for the tested fungi. MIC (μg/mL) was taken as the lowest concentration of the lipopeptide, at which the observable growth was inhibited. […] The experiments were performed in triplicate on three different days.

[2] = system: Klebsiella pneumoniae (ATCC 700603); conditions: ATCC 700603, TFA salt, triplicate; for MIC Klebsiella pneumoniae: Mueller-Hinton broth, 10^5 cfu/mL, 18 h 37°C; for MBC Klebsiella pneumoniae: subculture on Mueller-Hinton II Agar, 24 h 37°C
Procedure: as §1

[3] = system: Staphylococcus aureus (ATCC 25923); conditions: ATCC 25923, TFA salt; for MBC Staphylococcus aureus: MIC wells subcultured on Mueller-Hinton II Agar, 24 h 37°C, triplicate; for MIC Staphylococcus aureus: Mueller-Hinton broth, 10^5 cfu/mL, 18 h 37°C, triplicate on three days
Procedure: as §1

[4] = system: Candida albicans (ATCC 10231)
Procedure: as §1

[5] = system: Escherichia coli (ATCC 25922); conditions: ATCC 25922, TFA salt, triplicate; for MIC Escherichia coli: Mueller-Hinton broth, 10^5 cfu/mL, 18 h 37°C; for MBC Escherichia coli: subculture on Mueller-Hinton II Agar, 24 h 37°C
Procedure: as §1

[6] = system: Aspergillus brasiliensis (ATCC 16404); conditions: ATCC 16404, 48 h
Procedure: as §1

[7] = system: Candida tropicalis (PCM 2681); conditions: PCM 2681, 48 h
Procedure: as §1

[8] = system: Pseudomonas aeruginosa (ATCC 9027); conditions: ATCC 9027, TFA salt, triplicate; for MIC Pseudomonas aeruginosa: Mueller-Hinton broth, 10^5 cfu/mL, 18 h 37°C; for MBC Pseudomonas aeruginosa: subculture on Mueller-Hinton II Agar, 24 h 37°C
Procedure: as §1

[9] = system: Staphylococcus epidermidis (PCM 2118)
Procedure: as §1

[10] = system: Proteus vulgaris (PCM 2668); conditions: PCM 2668, TFA salt, triplicate; for MIC Proteus vulgaris: Mueller-Hinton broth, 10^5 cfu/mL, 18 h 37°C; for MBC Proteus vulgaris: subculture on Mueller-Hinton II Agar, 24 h 37°C
Procedure: as §1

[11] = system: Bacillus subtilis (ATCC 6633)
Procedure: as §1

[12] = ATCC 29212, TFA salt, triplicate
[13] = PCM 2118, TFA salt, Mueller-Hinton broth, 10^5 cfu/mL, 18 h 37°C, triplicate
[14] = PCM 2118, TFA salt, subculture on Mueller-Hinton II Agar, 24 h 37°C, triplicate
[15] = ATCC 6633, TFA salt, Mueller-Hinton broth, 10^5 cfu/mL, 18 h 37°C, triplicate
[16] = ATCC 6633, TFA salt, subculture on Mueller-Hinton II Agar, 24 h 37°C, triplicate
[17] = ATCC 29212, TFA salt, Mueller-Hinton broth, 10^5 cfu/mL, 18 h 37°C, triplicate

Structure (SMILES)	MBC Enterococcus fecalis [1, 12]	MIC Klebsiella pneumoniae [2]	MBC Klebsiella pneumoniae [2]	MBC Staphylococcus aureus [3]	MIC Staphylococcus aureus [3]	MFC Candida albicans ([4]; ATCC 10231, 48 h)	MIC Candida albicans ([4]; ATCC 10231, 48 h)	MIC Escherichia coli [5]	MBC Escherichia coli [5]	MFC Aspergillus brasiliensis [6]	MIC Aspergillus brasiliensis [6]	MFC Candida tropicalis [7]	MIC Candida tropicalis [7]	MIC Pseudomonas aeruginosa [8]	MBC Pseudomonas aeruginosa [8]	MIC Staphylococcus epidermidis [9, 13]	MBC Staphylococcus epidermidis [9, 14]	MIC Proteus vulgaris [10]	MBC Proteus vulgaris [10]	MIC Enterococcus fecalis [1, 17]	further results
CCCCCCCC(=O)N[C@@H](CCCCN)C(=O)N[C@@H](CCCCN)C(=O)N[C@@H](CCCCN)C(=O)N[C@@H](CCCCN)C(N)=O [C8-KKKK-NH2] (Octanoyl-KKKK-NH2)	>2000 µg/mL	>2000 µg/mL	>2000 µg/mL	>2000 µg/mL	>2000 µg/mL	2000 µg/mL (≈ 3.05 mM)	2000 µg/mL (≈ 3.05 mM)	>1000 µg/mL	>1000 µg/mL	2000 µg/mL (≈ 3.05 mM)	2000 µg/mL (≈ 3.05 mM)	2000 µg/mL (≈ 3.05 mM)	2000 µg/mL (≈ 3.05 mM)	>2000 µg/mL	>2000 µg/mL	>2000 µg/mL	>2000 µg/mL	>2000 µg/mL	>2000 µg/mL		MIC Enterococcus fecalis ([1]; ATCC 29212, 18 h): 2000 µg/mL (≈ 3.05 mM); MIC Bacillus subtillis [11, 15]: >2000 µg/mL; MBC Bacillus subtillis [11, 16]: >2000 µg/mL
CCCCCCCC(=O)N[C@@H](CCCCN)C(=O)N[C@@H](CCCCN)C(=O)N[C@@H](CCCCN)C(N)=O [C8-KKK-NH2]	>2000 µg/mL	>2000 µg/mL	>2000 µg/mL	>2000 µg/mL	>2000 µg/mL	2000 µg/mL (≈ 3.79 mM)	2000 µg/mL (≈ 3.79 mM)	>2000 µg/mL	>2000 µg/mL	2000 µg/mL (≈ 3.79 mM)	2000 µg/mL (≈ 3.79 mM)	2000 µg/mL (≈ 3.79 mM)	2000 µg/mL (≈ 3.79 mM)	>2000 µg/mL	>2000 µg/mL			>2000 µg/mL	>2000 µg/mL	>2000 µg/mL	MIC Staphylococcus epidermidis ([9]; PCM 2118, 18 h): 256 µg/mL (≈ 0.485 mM); MBC Staphylococcus epidermidis ([9]; PCM 2118, 24 h): 512 µg/mL (≈ 0.97 mM); MIC Bacillus subtillis ([11]; ATCC 6633, 18 h): 1000 µg/mL (≈ 1.89 mM); MBC Bacillus subtillis ([11]; ATCC 6633, 24 h): 1000 µg/mL (≈ 1.89 mM)
CCCCCCCC(=O)N[C@@H](CCCCN)C(=O)NCC(=O)N[C@@H](CCCCN)C(=O)NCC(N)=O [C8-KGKG-NH2] (Octanoyl-KGKG-NH2)	>2000 µg/mL	>2000 µg/mL	>2000 µg/mL	>2000 µg/mL	>2000 µg/mL	2000 µg/mL (≈ 3.89 mM)	2000 µg/mL (≈ 3.89 mM)	>2000 µg/mL	>2000 µg/mL	2000 µg/mL (≈ 3.89 mM)	2000 µg/mL (≈ 3.89 mM)	2000 µg/mL (≈ 3.89 mM)	2000 µg/mL (≈ 3.89 mM)	>2000 µg/mL	>2000 µg/mL	>2000 µg/mL	>2000 µg/mL	>2000 µg/mL	>2000 µg/mL	>2000 µg/mL	MIC Bacillus subtillis [11, 15]: >2000 µg/mL; MBC Bacillus subtillis [11, 16]: >2000 µg/mL
CCCCCCCCCC(=O)N[C@@H](CCCCN)C(=O)N[C@@H](CCCCN)C(=O)N[C@@H](CCCCN)C(=O)N[C@@H](CCCCN)C(N)=O [C10-KKKK-NH2] (Decanoyl-KKKK-NH2)	>2000 µg/mL	>2000 µg/mL	>2000 µg/mL	>2000 µg/mL	>2000 µg/mL			>2000 µg/mL	>2000 µg/mL	2000 µg/mL (≈ 2.92 mM)	2000 µg/mL (≈ 2.92 mM)	2000 µg/mL (≈ 2.92 mM)	2000 µg/mL (≈ 2.92 mM)	>2000 µg/mL	>2000 µg/mL			>2000 µg/mL	>2000 µg/mL	>2000 µg/mL	MIC Candida albicans ([4]; ATCC 10231, TFA salt, Sabouraud Dextrose broth, 10^3 cfu/mL, 48 h 25°C, triplicate): >2000 µg/mL; MFC Candida albicans ([4]; ATCC 10231, TFA salt, subculture on Sabouraud 2% Glucose Agar, 48 h 25°C, triplicate): >2000 µg/mL; MIC Staphylococcus epidermidis ([9]; PCM 2118, 18 h): 64 µg/mL (≈ 0.0936 mM); MBC Staphylococcus epidermidis ([9]; PCM 2118, 24 h): 128 µg/mL (≈ 0.187 mM); MIC Bacillus subtillis ([11]; ATCC 6633, 18 h): 128 µg/mL (≈ 0.187 mM); MBC Bacillus subtillis ([11]; ATCC 6633, 24 h): 128 µg/mL (≈ 0.187 mM)
CCCCCCCC(=O)N[C@@H](CCCCN)C(=O)NCC(N)=O [C8-KG-NH2] (Octanoyl-Lys-Gly-NH2)	>2000 µg/mL	>2000 µg/mL	>2000 µg/mL	>2000 µg/mL	>2000 µg/mL	2000 µg/mL (≈ 6.09 mM)	2000 µg/mL (≈ 6.09 mM)	>2000 µg/mL	>2000 µg/mL	2000 µg/mL (≈ 6.09 mM)	2000 µg/mL (≈ 6.09 mM)	2000 µg/mL (≈ 6.09 mM)	2000 µg/mL (≈ 6.09 mM)	>2000 µg/mL	>2000 µg/mL	>2000 µg/mL	>2000 µg/mL	>2000 µg/mL	>2000 µg/mL	>2000 µg/mL	MIC Bacillus subtillis [11, 15]: >2000 µg/mL; MBC Bacillus subtillis [11, 16]: >2000 µg/mL
